Reference: ChEMBL document CHEMBL1201862, “PubChem BioAssay data set” (2004)
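Values below derive from 48-hour exposures of cells grown in 96-well plates, with endpoints linearly interpolated between the two concentrations bracketing the appropriate inhibition level. GI50 is the concentration that inhibits growth by half.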 Activity calls are given as the source filed them. Cut-off read from the data, not from the text of the source: active = GI50 up to about 1.1 µM and inactive = higher.

Columns and labels:
Assay in all cases: DTP human tumour cell line panel, 48 h
[1] = system: DMS-273
[2] = system: NCI/ADR-RES
[3] = system: U-251
[4] = system: UACC-257
[5] = system: SF-539
[6] = system: HCT-15
[7] = system: SN12C
[8] = system: NCI-H460
[9] = system: RPMI-8226
[10] = system: HOP-18
[11] = system: OVCAR-3
[12] = system: OVCAR-4
[13] = system: OVCAR-8
[14] = system: SF-268
[15] = system: SNB-78
[16] = system: A498
[17] = system: SNB-19
[18] = system: SF-295
[19] = system: EKVX
[20] = system: SK-MEL-2
[21] = system: NCI-H226
[22] = system: KM12
[23] = system: HCC 2998
[24] = system: UACC-62
[25] = system: DLD-1
[26] = system: LOX IMVI
[27] = system: RXF 393
[28] = system: M19-MEL
[29] = system: HCT-116
[30] = system: NCI-H23
[31] = system: SK-OV-3
[32] = system: UO-31
[33] = system: IGROV-1
[34] = system: HT-29
[35] = system: DMS-114
[36] = system: XF498
[37] = system: Malme-3M
[38] = system: MOLT-4
[39] = system: COLO 205
[40] = system: OVCAR-5
[41] = system: KM-20L2
[42] = system: SK-MEL-5
[43] = system: CAKI-1
[44] = system: SW-620
[45] = system: SNB-75
[46] = system: SK-MEL-28
[47] = system: HL-60
[48] = system: A549
[49] = system: CCRF-CEM
[50] = system: MCF7
[51] = system: NCI-H522
[52] = system: HOP-62
[53] = system: HOP-92
[54] = system: K562
[55] = system: TK-10
[56] = system: LXFL 529
[57] = system: SR
[58] = system: M14
[59] = system: 786-0
[60] = system: DU-145
[61] = system: ACHN

Measured: GI50

COc1cc(/C=C/c2ccc(OC)c(OC)c2)oc(=O)c1
> 250 µM: [6]
inactive: [1] > 110 µM | [2] > 250 µM | [3] 199 µM | [4] > 250 µM | [5] 213 µM | [7] > 250 µM | [8] > 230 µM | [9] > 250 µM | [10] 4.88 µM | [11] > 250 µM | [12] > 250 µM | [13] 10 µM | [14] > 170 µM | [15] 150 µM | [16] > 169 µM | [17] > 218 µM | [18] 162 µM | [19] > 116 µM | [20] > 213 µM | [21] > 250 µM | [22] > 250 µM | [23] > 250 µM | [24] 247 µM | [25] > 250 µM | [26] > 250 µM | [27] 57 µM | [28] > 250 µM | [29] > 250 µM | [30] 203 µM | [31] > 250 µM | [32] > 250 µM | [33] > 220 µM | [34] > 250 µM | [35] > 182 µM | [36] > 250 µM | [37] > 250 µM | [38] > 250 µM | [39] > 250 µM | [40] > 250 µM | [41] > 167 µM | [42] > 250 µM | [43] > 92.3 µM | [44] > 250 µM | [45] 73.3 µM | [46] > 250 µM | [47] > 91.6 µM | [48] > 250 µM | [49] > 194 µM | [50] > 250 µM | [51] > 195 µM | [52] 124 µM | [53] 122 µM | [54] > 250 µM

NS(=O)(=O)c1ccccc1C(=O)N/N=C(\c1nc2ccc([N+](=O)[O-])cc2[nH]c1=O)C(O)c1ccc([N+](=O)[O-])cc1 (stereo not given)
inactive: [3] > 100 µM | [4] > 100 µM | [5] 49.2 µM | [7] > 100 µM | [8] > 100 µM | [9] 58.5 µM | [10] > 100 µM | [11] > 100 µM | [55] > 100 µM | [12] > 100 µM | [13] > 100 µM | [14] > 100 µM | [16] > 100 µM | [17] > 100 µM | [18] > 100 µM | [19] > 100 µM | [20] > 100 µM | [21] > 100 µM | [22] 66.2 µM | [23] > 100 µM | [56] > 100 µM | [24] 52.2 µM | [57] > 100 µM | [25] > 100 µM | [26] 84.1 µM | [27] > 100 µM | [28] > 100 µM | [29] 84.1 µM | [30] > 100 µM | [31] > 100 µM | [32] 63.7 µM | [33] > 100 µM | [58] > 100 µM | [34] > 100 µM | [59] > 100 µM | [36] > 100 µM | [37] > 100 µM | [38] > 100 µM | [39] > 100 µM | [40] > 100 µM | [41] 46.2 µM | [42] 44.4 µM | [43] > 100 µM | [60] > 100 µM | [44] > 100 µM | [45] > 100 µM | [46] > 100 µM | [61] 41.6 µM | [47] > 100 µM | [48] > 100 µM | [49] 71.1 µM | [51] 10.6 µM | [53] > 100 µM | [54] 56.5 µM
24.2 µM: [6]

COC(=O)N/N=C(\C(=O)Nc1cccc([N+](=O)[O-])c1)c1nc2ccc([N+](=O)[O-])cc2nc1O
active: [14] 0.38 µM | [36] 0.494 µM
inactive: [4] > 100 µM | [5] 39.5 µM | [7] > 100 µM | [8] 57.5 µM | [9] 32.7 µM | [10] > 100 µM | [11] 49.8 µM | [55] > 100 µM | [12] > 100 µM | [13] 83.2 µM | [17] > 100 µM | [18] > 100 µM | [19] > 100 µM | [21] > 100 µM | [22] 29.4 µM | [23] 33 µM | [56] 27.7 µM | [24] 12.4 µM | [57] > 100 µM | [25] > 100 µM | [26] 18.6 µM | [27] > 100 µM | [28] 74.3 µM | [29] 61.7 µM | [30] > 100 µM | [31] > 100 µM | [32] 14.5 µM | [33] 64.6 µM | [58] 45.3 µM | [34] 60.7 µM | [35] 8.09 µM | [59] 53.1 µM | [37] > 100 µM | [38] 52.7 µM | [39] 37.1 µM | [40] > 100 µM | [41] 13.9 µM | [42] 34 µM | [44] 45.1 µM | [45] 85.7 µM | [46] > 100 µM | [61] 24.7 µM | [47] > 100 µM | [48] 42.9 µM | [49] > 100 µM | [51] 3.47 µM | [52] 26.4 µM | [53] 61.2 µM | [54] 11.4 µM

CC(=O)OC(C[C@H](C)[C@@H]1CC[C@]2(C)C3=CCC4C(C)(C)C(=O)CC[C@]4(C)C3CCC12C)C1OC1(C)C (stereo not given in full)
inactive: [1] 17.1 µM | [3] 21.9 µM | [4] 20.3 µM | [5] 41.4 µM | [9] 16.7 µM | [10] > 100 µM | [11] 88.9 µM | [55] 19.1 µM | [12] 28 µM | [13] 28.8 µM | [14] 21.6 µM | [16] 17.1 µM | [17] 39.6 µM | [18] 22.7 µM | [19] 32.7 µM | [20] 45.1 µM | [21] 13.6 µM | [22] 20 µM | [23] 16.4 µM | [56] 22.4 µM | [24] 23.4 µM | [57] > 10 µM | [25] 29.7 µM | [26] 27.9 µM | [27] 15.1 µM | [28] 31.2 µM | [29] 18.2 µM | [30] 20.5 µM | [31] 13 µM | [32] 13.2 µM | [33] 21.9 µM | [58] 20.1 µM | [34] 15.7 µM | [35] 32.5 µM | [59] 19.7 µM | [36] 18.5 µM | [37] 25.1 µM | [38] 24.5 µM | [39] 19.9 µM | [40] 16.7 µM | [41] 25.5 µM | [44] 34.1 µM | [46] 27.3 µM | [61] 11.5 µM | [47] 7.29 µM | [48] 21.2 µM | [49] 15.9 µM | [51] 12.9 µM | [52] 20.4 µM | [53] 11.9 µM | [54] 7.24 µM
33 µM: [6]

CCCCCCCCCCCCCCCCSCC(COC)COP(=O)([O-])OCC[N+](C)(C)C (stereo not given) [ILMOFOSINE]
active: [22] 0.977 µM
inactive: [1] 1.85 µM | [2] 16.5 µM | [3] 1.99 µM | [4] 14.3 µM | [5] 16.1 µM | [7] 3.24 µM | [8] 2.5 µM | [9] 2.49 µM | [10] 4.12 µM | [11] 5.38 µM | [12] 4.06 µM | [13] 9.06 µM | [14] 7.57 µM | [15] 10.2 µM | [16] 6.31 µM | [17] 4.3 µM | [18] 2.49 µM | [19] 14.4 µM | [20] 15.5 µM | [21] 3.72 µM | [23] 1.52 µM | [24] 4.92 µM | [25] 3.03 µM | [26] 5.41 µM | [27] 3.52 µM | [28] 2.79 µM | [29] 6.76 µM | [30] 13.6 µM | [31] 15.2 µM | [32] 7.69 µM | [33] 1.85 µM | [34] 3.09 µM | [35] 7.5 µM | [36] 6.3 µM | [37] 15.5 µM | [38] 2.41 µM | [39] 1.97 µM | [40] 13.3 µM | [42] 12.7 µM | [43] 3.52 µM | [44] 5.78 µM | [45] 3.31 µM | [46] 15.5 µM | [47] 1.55 µM | [48] 7.21 µM | [49] 2.9 µM | [50] 13.2 µM | [51] 2.34 µM | [52] 3.43 µM | [53] 2.26 µM | [54] 13.6 µM
2.88 µM: [6]
